The values below come from patent publication US20260226493A1, “HERBICIDE RESISTANT PLANTS” (SYNGENTA CROP PROTECTION AG, priority 2023, published 2026).

The subject of assay [1] is D4555 (Escherichia coli BioA) containing tobacco plants. Kind of assay: Visual herbicide damage score on transgenic tobacco D4555 (pCMP MTP EcBioA). The following applies: 600 gai/ha, replicate clones A, B, C of events 8480, 8526. The class given is in vivo. From the text: In order to determine if the overexpressed gene detailed in Example 3 confers resistance to BIO3-BIO1 inhibiting compounds when expressed in plants, GM tobacco lines were produced and tested with BIO3-BIO1 inhibiting compounds. Transgenic tobacco plants expressing the Escherichia coli BioA gene with (SEQ ID NO:203) and without a mitochondrial signal peptide (SEQ ID NO: 202).
(§1) Populations of transgenic tobacco comprising 20-30 transgenic events per plant transformation constructs were generated as described in Example 1. These lines were clonally propagated and 1 clone per event was sprayed with 600 g ai/ha compound L or A+0.2% Genapol X080 with a spray volume of 200 L/Ha (“g ai/ha” refers to grams of active compound per hectare).
[…] A score of 0 indicates no visible damage or stunting whereas a score of 100 indicates a complete death of the plant. 20 transgenic events (i.e. individual transgenic plants) from each GM tobacco line were transplanted to soil 1 week prior to spraying with BIO3-BIO1 inhibiting compounds. WT tobacco was included as a control.
• D4555 (Escherichia coli BioA) containing tobacco plants; 04602 (Pantoea ananatis BioA) containing tobacco plants; 04603 (Stenotrophomonas maltophilia BioA) containing tobacco plants; 04609 (Chroococcidiopsis sp. CCMEE 29 BioA) containing tobacco plants; 04611 (Bacillus subtilis BioA) containing tobacco plants; 04606 (Streptomyces viridochromogenes BioA) containing tobacco plants; 04607 (Pedobacter hartonius BioA) containing tobacco plants; 04608 (Chitinophaga filiformis BioA) containing tobacco plants; and 04610 (Tenacibaculum adriaticum BioA) containing tobacco plants, are shown in the “TABLES” section below in Tables 16 to 24 respectively.

The target in assay [2] is T1, Arabidopsis thaliana BioDA variant enzymes (Arabidopsis thaliana, UniProt B0F481).
T1 construct: with the predicted N-terminal mitochondrial transit peptide removed; 6xHis-tag (N); thrombin cleavage site (N); made in house; host or cells: E. coli BL21 (DE3) bioA
Kind of assay: biochemical. The following applies: WT Arabidopsis thaliana BioDA (SEQ ID NO 294); read-out: IC50. As to the method:
(§2) These plasmids were then expressed in E. coli BL21 (DE3) bioA with 50 μg/mL kanamycin and 25 μg/mL chloramphenicol selection. Overnight cultures grown at 37° C. were used to inoculate 8×500 mL AIM in shake flasks at a ratio of 1:100. Cultures were grown at 37° C., 200 rpm for 3.5 hours and then overnight at 20° C. Cells were harvested by centrifugation for 30 minutes at 10 000 g. Cells were stored at −80° C. until extraction. 30 g of cell pellet from was thawed in 120 mL of IMAC buffer A (20 mM HEPES pH7.5, 25 mM imidazole, 500 mM sodium chloride, 0.15 mM pyridoxal phosphate, 0.5 mM TCEP, 1× complete Protease Inhibitor Tablet (Roche)). The resuspension was passed through a cell disrupter at 18 000 PSI and centrifuged at 50 000 g for 25 minutes at 4° C. The His-tagged BIO3-BIO1 protein was purified from the extract supernatant on an AKTA avant chromatography system (Cytiva) using a HisTrap FF column and eluted in IMAC buffer B ((20 mM HEPES pH7.5, 500 mM imidazole, 500 mM sodium chloride, 0.15 mM pyridoxal phosphate, 0.5 mM TCEP) followed by SEC using a HiLoad 26/60 Superdex200 column in SEC buffer (25 mM HEPES pH7.5, 150 mM sodium chloride, 0.15 mM pyridoxal phosphate, 0.5 mM TCEP). Protein concentration was measured and calculated using the absorbance at 280 nm. Extracts were diluted 1 in 4 and 10 uL was analysed by SDS PAGE.
(§3) To measure BIO3-BIO1 mutant enzyme activity in the presence of herbicide, herbicides were incubated with 20 μL of enzyme mix (100 mM EPPS pH 8.6, 0.1 mM pyridoxal phosphate, 0.1 mg/mL BSA, 50 nM BIO3-BIO1 enzyme) for 10 minutes at 20° C. in a well of a 96-well half-area black plate, followed by the addition of 20 μL of substrate mix (final concentration of 100 mM EPPS pH 8.6, 0.1 mM pyridoxal phosphate, 0.1 mg/mL BSA, 100 μM spermidine, 20 μM KAPA, 100 mM NaCO3) and further incubation for 75 minutes at 20° C. The reaction was terminated by the addition of 50 μL of derivatisation mix (final concentration of 250 mM borate NaOH pH 9.4, 3.6 mM o-phthalaldehyde, 7 mM β-mercaptoethanol, 17% (v/v) ethanol, 3.6% (v/v) methanol). The fluorescent product produced by the reaction of DAPA with o-phthalaldehyde and 7 mM β-mercaptoethanol was measured at 470 nm after excitation at 410 nm.
(§4) For IC50 calculations, appropriate dose responses of compounds L, M, B, K and G were used. Calculated percentage inhibitions were then input into GraphPad Prism 7 and IC50s calculated using the non-linear regression (vs. normalised response) equation.

In assay [3] the target is T2, Arabidopsis thaliana BioDA variant enzymes (Arabidopsis thaliana, UniProt B0F481, C388D).
T2 construct: with the predicted N-terminal mitochondrial transit peptide removed; 6xHis-tag (N); thrombin cleavage site (N); made in house; host or cells: E. coli BL21 (DE3) bioA
Kind of assay: biochemical. As to the method: as §2, §3, §4

Assay [4] has as its system D4586 (Zea mays BIO3-BIO1 C372D) containing tobacco plants. Kind of assay: Visual herbicide damage score on transgenic tobacco D4586 (pCMP ZmBioDA C372D). Format: in vivo. The following applies: 600 gai/ha; 7 DAT; each table row is one D4586 transgenic plant.
Source text: as §1
Herbicidal damage was visually assessed across the population and a herbicide damage score given at 7, 14 and 21 days. A score of 0 indicates no visible damage or stunting whereas a score of 100 indicates a complete death of the plant. 20 transgenic events (i.e. individual transgenic plants) from each GM tobacco line were transplanted to soil 1 week prior to spraying with BIO3-BIO1inhibiting compounds. WT tobacco was included as a control.
To determine if overexpression of variants detailed in Example 7 confer resistance to BIO3-BIO1 inhibiting compounds when expressed in plants, GM tobacco lines were produced using the methods in Example 1 and tested with BIO3-BIO1 inhibiting compounds.
Transgenic tobacco plants expressing the Arabidopsis thaliana BIO3-BIO1 variants C388D (SEQ ID NO:26), P421L(SEQ ID NO:41), F348C (SEQ ID NO:28), G700S (SEQ ID NO:39), W392S (SEQ ID NO:70) and the Zea mays BIO3-BIO1 variant C372D (SEQ ID NO:324). Populations of transgenic tobacco were sprayed and assessed as in Example 2

T2 sequence (B0F481 24-833 C388D): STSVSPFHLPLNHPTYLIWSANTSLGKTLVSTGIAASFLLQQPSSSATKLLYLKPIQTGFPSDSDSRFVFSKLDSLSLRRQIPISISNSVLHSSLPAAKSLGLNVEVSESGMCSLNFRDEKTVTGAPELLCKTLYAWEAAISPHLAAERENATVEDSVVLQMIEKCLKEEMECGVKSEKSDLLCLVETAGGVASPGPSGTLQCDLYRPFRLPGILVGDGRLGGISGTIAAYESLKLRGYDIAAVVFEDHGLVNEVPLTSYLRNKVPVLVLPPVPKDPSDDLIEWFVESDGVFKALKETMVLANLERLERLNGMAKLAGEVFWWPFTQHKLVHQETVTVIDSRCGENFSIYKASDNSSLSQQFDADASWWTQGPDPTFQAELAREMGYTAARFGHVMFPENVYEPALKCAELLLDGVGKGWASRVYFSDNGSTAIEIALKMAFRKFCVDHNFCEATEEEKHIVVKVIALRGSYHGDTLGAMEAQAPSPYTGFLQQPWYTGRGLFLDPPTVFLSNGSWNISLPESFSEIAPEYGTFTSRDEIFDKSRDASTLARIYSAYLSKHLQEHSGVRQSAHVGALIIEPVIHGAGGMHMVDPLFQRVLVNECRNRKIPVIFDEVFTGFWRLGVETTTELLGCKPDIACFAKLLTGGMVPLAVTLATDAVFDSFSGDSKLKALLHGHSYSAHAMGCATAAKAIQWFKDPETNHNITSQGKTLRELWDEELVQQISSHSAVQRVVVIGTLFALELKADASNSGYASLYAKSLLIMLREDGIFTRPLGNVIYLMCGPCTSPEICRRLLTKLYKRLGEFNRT

For the compound `CCOC(=O)c1nn(-c2ccc3c(c2)OC(F)(F)C(F)(F)O3)c2cccc(C(C)=O)c2c1=O` [Compound A, ethyl 5-acetyl-4-oxo-1-(2,2,3,3-tetrafluoro-1,4-benzodioxin-6-yl)cinnoline-3-carboxylate], the percentage of damage in assay [1] (7 DAT), in assay [1] (14 DAT) and in assay [1] (21 DAT) was 0% each time.
Turning to `CC(O)C(N)CCCCC(=O)O.Cl` (centres unmarked) [Compound B, [5-carboxy-1-(1-hydroxyethyl)pentyl]ammonium chloride], the half-inhibitory concentration (IC50) (in general, the concentration at which inhibition is half-maximal) is 2.81 µM in assay [2] and 29.2 µM in assay [3].
As for `CCn1c(Cn2ccc(C(F)(F)F)n2)cc(=O)c(C(=O)O)c1-c1ccc(Cl)c(Cl)c1` [Compound L, 2-(3,4-dichlorophenyl)-1-ethyl-4-oxo-6-[[3-(trifluoromethyl)pyrazol-1-yl]methyl]pyridine-3-carboxylic acid], the percentage of damage is given as 10% in assay [4], 0% in assay [1] (7 DAT), 0% in assay [1] (14 DAT) and 0% in assay [1] (21 DAT). In addition, the IC50 turned out to be 0.145 µM in assay [2] and 100 µM in assay [3].
